Source: PubChem BioAssay (NCI)
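Dose response: 5 concentrations. Exposure: 48 h. Format: 96-well plates. Endpoint: linear interpolation; highest concentration if not reached. The concentration for 50% growth inhibition is given as GI50. TGI denotes the concentration required for complete inhibition of growth.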

Tests used:
Test in all cases: inhibition of tumour cell growth, NCI panel, 48 h
[1] = test system: 786-0 renal
[2] = test system: A498 renal
[3] = test system: A549 NSCLC
[4] = test system: ACHN renal
[5] = test system: BT-549 breast
[6] = test system: CAKI-1 renal
[7] = test system: CCRF-CEM leukemia
[8] = test system: COLO 205 colon
[9] = test system: DU-145 prostate
[10] = test system: EKVX NSCLC
[11] = test system: HCC-2998 colon
[12] = test system: HCT-116 colon
[13] = test system: HCT-15 colon
[14] = test system: HL-60(TB) leukemia
[15] = test system: HOP-62 NSCLC
[16] = test system: HOP-92 NSCLC
[17] = test system: HS 578T breast
[18] = test system: HT29 colon
[19] = test system: IGROV1 ovarian
[20] = test system: K-562 leukemia
[21] = test system: KM12 colon
[22] = test system: LOX IMVI melanoma
[23] = test system: M14 melanoma
[24] = test system: MALME-3M melanoma
[25] = test system: MCF7 breast
[26] = test system: MDA-MB-231 breast
[27] = test system: MDA-MB-435
[28] = test system: MDA-MB-468 breast
[29] = test system: MOLT-4 leukemia
[30] = test system: NCI-H226 lung
[31] = test system: NCI-H23 lung
[32] = test system: NCI-H460 lung
[33] = test system: NCI-H522 lung
[34] = test system: NCI/ADR-RES ovarian
[35] = test system: OVCAR-3 ovarian
[36] = test system: OVCAR-4 ovarian
[37] = test system: OVCAR-5 ovarian
[38] = test system: OVCAR-8 ovarian
[39] = test system: PC-3 prostate
[40] = test system: RPMI-8226 leukemia
[41] = test system: RXF 393 renal
[42] = test system: SF-268 CNS
[43] = test system: SF-295 CNS
[44] = test system: SF-539 CNS
[45] = test system: SK-MEL-2 melanoma
[46] = test system: SK-MEL-28 melanoma
[47] = test system: SK-MEL-5 melanoma
[48] = test system: SK-OV-3 ovarian
[49] = test system: SN12C renal
[50] = test system: SNB-19 CNS
[51] = test system: SNB-75 CNS
[52] = test system: SW-620 colon
[53] = test system: T-47D breast
[54] = test system: TK-10 renal
[55] = test system: U251 CNS
[56] = test system: UACC-257 melanoma
[57] = test system: UACC-62 melanoma
[58] = test system: UO-31 renal

## C=C1CC[C@@H]2[C@]3(C)COC(c4ccccc4)O[C@@H]3CC[C@@]2(C)[C@@H]1C/C=C1/C(=O)OCC1OC(C)=O (stereo partly specified)
[1]
  GI50: 12.5 µM
  TGI: 25.4 µM
[2]
  GI50: 19.9 µM
  TGI: 35.7 µM
[3]
  GI50: 15.4 µM
  TGI: 32.3 µM
[4]
  GI50: 8.95 µM
  TGI: 21 µM
[5]
  GI50: 2.67 µM
  TGI: 10 µM
[6]
  GI50: 12.2 µM
  TGI: 24.7 µM
[7]
  GI50: 2.54 µM
  TGI: 10.9 µM
[8]
  GI50: 17.5 µM
  TGI: 36.1 µM
[9]
  GI50: 13.6 µM
  TGI: 27.2 µM
[10]
  GI50: 10.7 µM
  TGI: 22.6 µM
[11]
  GI50: 13.9 µM
  TGI: 26.9 µM
[12]
  GI50: 2.25 µM
  TGI: 5.78 µM
[13]
  GI50: 4.3 µM
  TGI: 16.3 µM
[14]
  GI50: 7.37 µM
  TGI: 39.2 µM
[15]
  GI50: 16 µM
  TGI: 31.2 µM
[16]
  GI50: 10.4 µM
  TGI: 23.4 µM
[17]
  GI50: 20.5 µM
  TGI: 67.4 µM
[18]
  GI50: 3.63 µM
  TGI: 13.7 µM
[19]
  GI50: 14.4 µM
  TGI: 27.8 µM
[20]
  GI50: 3.72 µM
  TGI: > 100 µM
[21]
  GI50: 10.6 µM
  TGI: 25.7 µM
[22]
  GI50: 1.8 µM
  TGI: 3.61 µM
[23]
  GI50: 7.44 µM
  TGI: 20.9 µM
[24]
  GI50: 17.1 µM
  TGI: 33.1 µM
[25]
  GI50: 3.34 µM
  TGI: 15.5 µM
[26]
  GI50: 10.9 µM
  TGI: 23 µM
[27]
  GI50: 10.4 µM
  TGI: 22.5 µM
[28]
  GI50: 5.05 µM
  TGI: 19 µM
[29]
  GI50: 4.43 µM
  TGI: 28.6 µM
[30]
  GI50: 4.89 µM
  TGI: 23.1 µM
[31]
  GI50: 15.1 µM
  TGI: 29.1 µM
[32]
  GI50: 18.9 µM
  TGI: 51.8 µM
[33]
  GI50: 10.2 µM
  TGI: 22.8 µM
[34]
  GI50: 3.28 µM
  TGI: 11.1 µM
[35]
  GI50: 2.74 µM
  TGI: 11.9 µM
[36]
  GI50: 10.9 µM
  TGI: 25.2 µM
[37]
  GI50: 13.4 µM
  TGI: 26.2 µM
[38]
  GI50: 3.23 µM
  TGI: 12.3 µM
[39]
  GI50: 5.4 µM
  TGI: 20.4 µM
[40]
  GI50: 2.7 µM
  TGI: 7.85 µM
[41]
  GI50: 4.13 µM
  TGI: 17 µM
[42]
  GI50: 15.7 µM
  TGI: 34.3 µM
[43]
  GI50: 13.3 µM
  TGI: 26.1 µM
[44]
  GI50: 4.12 µM
  TGI: 14.8 µM
[45]
  GI50: 11.1 µM
  TGI: 24.8 µM
[46]
  GI50: 13.9 µM
  TGI: 26.9 µM
[47]
  GI50: 12.2 µM
  TGI: 24.8 µM
[48]
  GI50: 19.3 µM
  TGI: 34.4 µM
[49]
  GI50: 5.64 µM
  TGI: 18.9 µM
[50]
  GI50: 15.1 µM
  TGI: 28.4 µM
[51]
  GI50: 1.77 µM
  TGI: 19.3 µM
[52]
  GI50: 3.04 µM
  TGI: 10.3 µM
[53]
  GI50: 10.6 µM
  TGI: 27 µM
[54]
  GI50: 19 µM
  TGI: 33.4 µM
[55]
  GI50: 10.4 µM
  TGI: 24.5 µM
[56]
  GI50: 14.3 µM
  TGI: 28.7 µM
[57]
  GI50: 7.28 µM
  TGI: 20.3 µM
[58]
  GI50: 10.4 µM
  TGI: 22.1 µM
